Reference: US9708247B2, “Modulators of the eIF2alpha pathway” (The Regents of the University of California, priority 2013, dated 2017)

Experiments:
[1] = system: caspase 3/7; experiment: Caspase 3/7 activation in Hela cells; format: cell-based, human; conditions: tunicamycin or thapsigargin plus 25 nM ISRIB
Procedure: FIGS. 5A-5D. […]
Hela cells were plated in 96 well Corning plates at 0.4×10^4 cells/well 24 hours prior to imaging. […] In order to quantify the total number of cells, Vybrant DyeCycle Green staining solution (1 μM) was added directly to the well immediately after the final Caspase-3/7 scan and incubated for 1 h prior to acquiring final images. Data was analyzed using IncuCyte analysis software.

[2] = system: mouse embryonic fibroblasts (MEFs); experiment: Polysome gradient analysis in MEFs; format: cell-based
Procedure: Mouse Embryonic Fibroblasts (MEFs) or TREx-293 cells expressing eIF2α(S51D) were seeded on 150 mm plates and allowed to grow to 80% confluence. Cells were then induced with 25 nM doxycycline for 14 h and subsequently treated with the appropriate compounds for the indicated times. 100 μg/ml of cycloheximide was added to the cells for 1 min before lysis. Cells were washed twice with PBS supplemented with 100 μg/ml cycloheximide and subsequently lysed in 20 mM Tris pH 7.4, 200 mM NaCl, 15 mM MgCl, 1 mM DTT, 8% Glycerol, 100 μg/ml cycloheximide, 1% Triton X-100 and EDTA-free protease inhibitor tablets (Roche). Cells were scraped, collected, triturated with a 25^7/8 gauge needle, and the homogenate was centrifuged for 10 min at 10,000×g. The supernatant was loaded on a 10-50% sucrose gradient and sedimented in a SW40 rotor at 150,000×g for 2.4 h. The gradients were fractionated using a piston gradient fractionator (BioComp) and UV absorbance at 254 nm was monitored using a UV-Monitor (BioRad).

[3] = system: contextual fear memory; experiment: Contextual fear conditioning; format: in vivo, mouse; conditions: vs vehicle
Procedure: (§1) Eight to ten-week-old male C57BL/6J mice were used for behavioral experiments. Food and water were provided ad libitum, and mice were kept on a 12:12 h light/dark cycle (lights on at 08:00 h). All procedures complied with Canadian Council on Animal Care guidelines
Mice were handled for 3 days and thereafter injected daily intraperitoneally with ISRIB (0.25 mg/kg in saline, 1% DMSO) for 4 consecutive days. One hour after the last injection the mice were trained with the protocol, which consisted of a 2-min period of context exploration, followed by a single foot shock of 0.35 mA for 1 s. The mice were returned to their home cage 1 min after the shock. One and 24 h after training, the mice were tested for contextual fear memory by placing the animals in the conditioning context for a 4-min period. The incidence of freezing was scored in 5-s intervals as either “freezing” or “not freezing”. Percent of freezing indicates the number of intervals in which freezing was observed divided by total number of 5-s intervals. Statistical analyses were done by Student's t tests and one-way ANOVA followed by between-group comparisons using Tukey's posthoc test.

[4] = system: spatial learning; experiment: Morris water maze (hidden platform, weak training); format: in vivo, mouse; conditions: p<0.05
Procedure: as §1
Mice were trained in a water pool of 100 cm diameter with a hidden platform of 10 cm diameter. Mice were handled daily for 3 days before the experiment, and the training protocol consisted of 1 swimming trial per day. Each mouse swam until it found the hidden platform or 120 s, when it was gently guided to the platform and stayed there for 10 s before being returned to the cage. Immediately after the swimming trial the mice were injected intraperitoneally with ISRIB (0.25 mg/kg in saline, 1% DMSO). For the probe test, the platform was removed and each mouse was allowed to swim for 60 s, while its swimming trajectory was monitored with a video tracking system (HVS Image, Buckingham).

[5] = Toxicity in mice; format: in vivo

O=C(COc1ccc(Cl)cc1)NC1CCC(NC(=O)COc2ccc(Cl)cc2)CC1 (stereo not drawn) [ISRIB]
activity of caspases 3 and/or 7 [1]: significantly induced | translational attenuation by Torin-1 (CAP-dependent initiation) ([2]; 750 nM torin-1, 200 nM ISRIB, 2 h): did not reverse the effect of Torin-1 on translation | ER stress-induced increase in 80S monosomes at the expense of polyribosomes ([2]; 2 μg/ml tunicamycin, 200 nM ISRIB, 1 h): reversed (at least partially) | freezing, short-term contextual fear memory ([3]; 1 h after training): No differences were observed | freezing, long-term contextual fear memory ([3]; 24 h after training, 0.25 mg/kg ip for 4 days, p<0.05): increased freezing | probe test: preference for target quadrant ([4]; 24 h after last training session): significantly preferred the target quadrant | escape latency after 5 days of training ([4]; mice, 0.25 mg/kg ip daily after training, vehicle 68.1+/−20 s): 16.4 ± 4.8 s | probe test: crossing of the platform location ([4]; vs vehicle): increased crossing of the platform location | toxicity [5]: no overt toxicity
